PubChem BioAssay AID256 (DTP/NCI, 2004)
“And” between values parts separate entries of the source, which are not always exact repeats. Equal values may be shown once. Inconclusive results and toxic doses are left out.

Test system: CD2F1 mice, L1210 leukemia ip, survival T/C
Assay: NCI In Vivo Anticancer Drug Screen. Data for tumor model L1210 Leukemia (intraperitoneal) in CD2F1 (CDF1) mice
Settings: higher = longer survival
How it was run: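 Activity against a transplanted murine tumor was judged by comparing the compound group with a vehicle group. The outcome in the treated animals was divided by that in the controls.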

[1] = endpoint: mean survival time, dose: 50.0 mg/kg/injection, schedule: Q01DX009 (ip), vehicle: saline with Tween-80
[2] = endpoint: mean survival time, dose: 100.0 mg/kg/injection, schedule: Q01DX009 (ip), vehicle: saline with Tween-80
[3] = endpoint: mean survival time, dose: 200.0 mg/kg/injection, schedule: Q01DX009 (ip), vehicle: saline with Tween-80
[4] = endpoint: mean survival time, dose: 25.0 mg/kg/injection, schedule: Q01DX009 (ip), vehicle: saline with Tween-80
[5] = endpoint: mean survival time, dose: 100.0 mg/kg/injection, schedule: Q04DX003 (ip), vehicle: saline with Tween-80
[6] = endpoint: mean survival time, dose: 200.0 mg/kg/injection, schedule: Q04DX003 (ip), vehicle: saline with Tween-80
[7] = endpoint: mean survival time, dose: 400.0 mg/kg/injection, schedule: Q04DX003 (ip), vehicle: saline with Tween-80
[8] = endpoint: mean survival time, dose: 400.0 mg/kg/injection, schedule: Q01DX009 (ip), vehicle: saline with Tween-80
[9] = endpoint: mean survival time, dose: 75.0 mg/kg/injection, schedule: Q01DX001 (ip), vehicle: saline
[10] = endpoint: mean survival time, dose: 100.0 mg/kg/injection, schedule: Q01DX001 (ip), vehicle: saline with Tween-80
[11] = endpoint: mean survival time, dose: 200.0 mg/kg/injection, schedule: Q01DX001 (ip), vehicle: saline with Tween-80
[12] = endpoint: mean survival time, dose: 400.0 mg/kg/injection, schedule: Q01DX001 (ip), vehicle: saline with Tween-80

In the case of `CC(=O)c1ccc2c(c1)Cc1cc(C(C)=O)ccc1-2`, the T/C (endpoint: mean survival time, dose: 100.0 mg/kg/injection, schedule: Q04DX003 (ip), vehicle: saline sonified) is reported as 96 % of control, the T/C (endpoint: mean survival time, dose: 200.0 mg/kg/injection, schedule: Q04DX003 (ip), vehicle: saline sonified) is reported as 93 % of control and the T/C (endpoint: mean survival time, dose: 400.0 mg/kg/injection, schedule: Q04DX003 (ip), vehicle: saline sonified) is reported as 98 % of control.

With `COc1ccc(OCCOC(=O)Nc2ccc(C)c([N+](=O)[O-])c2)cc1` the T/C [1] was 92 % of control, the T/C [2] was 88 % of control and the T/C [3] was 92 % of control.

For `CC(=O)OC1CCC2(C)CCCC(O)C2(O)C1` (stereo unspecified), the T/C [4] was 103 % of control, the T/C [1] was 116 % of control and the T/C [2] was 107 % of control. For the same compound, the T/C (endpoint: mean survival time, dose: 100.0 mg/kg/injection, schedule: Q04DX003 (ip), vehicle: acetone) was 101 % of control, the T/C (endpoint: mean survival time, dose: 150.0 mg/kg/injection, schedule: Q01DX009 (ip), vehicle: saline) was 97 % of control and the T/C (endpoint: mean survival time, dose: 225.0 mg/kg/injection, schedule: Q01DX009 (ip), vehicle: saline) was 100 % of control. The T/C (endpoint: mean survival time, dose: 335.0 mg/kg/injection, schedule: Q01DX009 (ip), vehicle: saline) was 91 % of control.

In the case of `O=C(c1ccccc1)C(O)c1ccccc1` (stereo unspecified), the T/C [5] is reported as 90 % of control, the T/C [6] is reported as 96 % of control and the T/C [7] is reported as 97 % of control.

With `O=C(Nc1ccc(Br)c2c(NC(=O)c3ccccc3)ccc(Br)c12)c1ccccc1` the T/C [2] was 88 % of control and 93 % of control, the T/C [3] was 97 % of control and the T/C [8] was 93 % of control.

In the case of `N#CCCCCCCN=[N+]=[N-]`, the T/C [9] is reported as 98 % of control and the T/C (endpoint: mean survival time, dose: 150.0 mg/kg/injection, schedule: Q01DX001 (ip), vehicle: saline) is reported as 98 % of control.

In the case of `O=C1C(Cl)=C(Nc2cccc(Cl)c2)C(=O)c2ccccc21`, the T/C (endpoint: mean survival time, dose: 100.0 mg/kg/injection, schedule: Q04DX002 (ip), vehicle: other) is reported as 90 % of control, the T/C (endpoint: mean survival time, dose: 200.0 mg/kg/injection, schedule: Q04DX002 (ip), vehicle: other) is reported as 94 % of control and the T/C (endpoint: mean survival time, dose: 400.0 mg/kg/injection, schedule: Q04DX002 (ip), vehicle: other) is reported as 105 % of control.

`CCCCCCCCCCCCCCCCSC(=S)OCC` was tested, and the T/C [10] was 95 % of control, the T/C [2] was 96 % of control and the T/C [11] was 87 % of control. The T/C [3] was 95 % of control, the T/C [12] was 95 % of control and the T/C [8] was 95 % of control.

`c1ccc([Si]c2ccccc2)cc1` was tested, and the T/C [5] was 104 % of control, the T/C [6] was 102 % of control and the T/C [7] was 102 % of control.

For `Nc1nc(N)c(N=Nc2ccc(S(=O)(=O)c3ccc(N=Nc4c(N)nc(N)[nH]c4=O)cc3)cc2)c(=O)[nH]1`, the T/C [2] was 102 % of control, the T/C [3] was 92 % of control and the T/C [8] was 92 % of control.

`COc1cccc2c1C(=O)c1c(O)c3c(c(O)c1C2=O)CC(O)(C(=O)CO)CC3OC1CC(N)C(O)C(C)O1.[Cl][Pt+2][Cl].[NH2-].[NH2-]` (stereo unspecified) was tested, and the T/C (endpoint: median survival time, dose: 4.0 mg/kg/injection, schedule: Q04DX003 (ip), vehicle: DMSO) was 152 % of control and the T/C (endpoint: median survival time, dose: 8.0 mg/kg/injection, schedule: Q04DX003 (ip), vehicle: DMSO) was 153 % of control and 154 % of control.

For `NCCSCC(N)C(=O)O` (stereo unspecified), the T/C (endpoint: mean survival time, dose: 50.0 mg/kg/injection, schedule: Q01DX009 (ip), vehicle: saline) was 100 % of control, the T/C (endpoint: mean survival time, dose: 100.0 mg/kg/injection, schedule: Q01DX009 (ip), vehicle: saline) was 100 % of control and the T/C (endpoint: mean survival time, dose: 200.0 mg/kg/injection, schedule: Q01DX009 (ip), vehicle: saline) was 104 % of control.

In the case of `CCC1(C)CCC2C(=CCC3C(C)(C(=O)OC)CCCC23C)C1` (stereo unspecified), the T/C [10] is reported as 94 % of control, the T/C [11] is reported as 92 % of control and the T/C [12] is reported as 94 % of control.

For `COc1cc(C2c3cc4c(cc3[C@@H](OC)[C@H]3COC(=O)C23)OCO4)cc(OC)c1O` (stereo partly specified), the T/C (endpoint: median survival time, dose: 1.25 mg/kg/injection, schedule: Q01DX009 (ip), vehicle: saline with Tween-80) was 108 % of control, the T/C (endpoint: median survival time, dose: 2.5 mg/kg/injection, schedule: Q01DX009 (ip), vehicle: saline with Tween-80) was 104 % of control and the T/C (endpoint: median survival time, dose: 5.0 mg/kg/injection, schedule: Q01DX009 (ip), vehicle: saline with Tween-80) was 105 % of control. The T/C (endpoint: median survival time, dose: 10.0 mg/kg/injection, schedule: Q01DX009 (ip), vehicle: saline with Tween-80) was 103 % of control.

For `CCCCCCCC(=O)Oc1ccc(N=Nc2ccc(OCC)cc2)cc1`, the T/C [2] was 93 % of control, the T/C [5] was 95 % of control and the T/C [3] was 90 % of control. For the same compound, the T/C [6] was 95 % of control, the T/C [8] was 98 % of control and the T/C [7] was 89 % of control.

With `CN=NNc1ccccc1` the T/C [9] was 117 % of control, the T/C (endpoint: mean survival time, dose: 75.0 mg/kg/injection, schedule: Q04DX003 (ip), vehicle: saline with Tween-80) was 122 % of control and the T/C [5] was 119 % of control. The T/C (endpoint: mean survival time, dose: 150.0 mg/kg/injection, schedule: Q04DX003 (ip), vehicle: saline with Tween-80) was 153 % of control and the T/C (endpoint: mean survival time, dose: 225.0 mg/kg/injection, schedule: Q04DX003 (ip), vehicle: saline with Tween-80) was 86 % of control.

With `Cc1cc(NC(=O)Nc2cc(F)ccc2F)no1` the T/C (endpoint: mean survival time, dose: 25.0 mg/kg/injection, schedule: Q01DX009 (ip), vehicle: Klucel (hydroxypropylcellulose) (HPC)) was 101 % of control, the T/C (endpoint: mean survival time, dose: 50.0 mg/kg/injection, schedule: Q01DX009 (ip), vehicle: Klucel (hydroxypropylcellulose) (HPC)) was 103 % of control and the T/C (endpoint: mean survival time, dose: 100.0 mg/kg/injection, schedule: Q01DX009 (ip), vehicle: Klucel (hydroxypropylcellulose) (HPC)) was 101 % of control.

`CC(C)(C)N/C(=C/C(=O)c1ccccc1)c1ccccc1` was tested, and the T/C [5] was 94 % of control, the T/C [6] was 96 % of control and the T/C [7] was 95 % of control.

In the case of `OCC1OC(n2cnc3c([Se]Cc4ccccn4)ncnc32)C(O)C1O` (stereo unspecified), the T/C (endpoint: mean survival time, dose: 3.12 mg/kg/injection, schedule: Q01DX009 (ip), vehicle: saline) is reported as 102 % of control, the T/C (endpoint: mean survival time, dose: 6.25 mg/kg/injection, schedule: Q01DX009 (ip), vehicle: saline) is reported as 113 % of control and the T/C (endpoint: mean survival time, dose: 12.5 mg/kg/injection, schedule: Q01DX005 (ip), vehicle: saline) is reported as 100 % of control. The T/C (endpoint: mean survival time, dose: 12.5 mg/kg/injection, schedule: Q01DX009 (ip), vehicle: saline) was 111 % of control.

For `CC([NH-])C(=O)O.[Cl][Pt][Cl]` (stereo unspecified), the T/C (endpoint: mean survival time, dose: 25.0 mg/kg/injection, schedule: Q04DX003 (ip), vehicle: saline) was 121 % of control and the T/C (endpoint: mean survival time, dose: 50.0 mg/kg/injection, schedule: Q04DX003 (ip), vehicle: saline) was 110 % of control.

With `[Pt+2].[S-]c1ccccc1.[S-]c1ccccc1.c1ccc([PH+](c2ccccc2)c2ccccc2)cc1.c1ccc([PH+](c2ccccc2)c2ccccc2)cc1` the T/C (endpoint: mean survival time, dose: 3.13 mg/kg/injection, schedule: Q04DX003 (sc), vehicle: distilled water + Tween-80) was 97 % of control, the T/C (endpoint: mean survival time, dose: 6.25 mg/kg/injection, schedule: Q04DX003 (sc), vehicle: distilled water + Tween-80) was 110 % of control and the T/C (endpoint: mean survival time, dose: 12.5 mg/kg/injection, schedule: Q04DX003 (sc), vehicle: distilled water + Tween-80) was 103 % of control. For the same compound, the T/C (endpoint: mean survival time, dose: 25.0 mg/kg/injection, schedule: Q04DX003 (sc), vehicle: distilled water + Tween-80) was 97 % of control, the T/C (endpoint: mean survival time, dose: 50.0 mg/kg/injection, schedule: Q04DX003 (sc), vehicle: distilled water + Tween-80) was 91 % of control and the T/C (endpoint: mean survival time, dose: 100.0 mg/kg/injection, schedule: Q04DX003 (sc), vehicle: distilled water + Tween-80) was 89 % of control.

For `C(#[C][Ge]([C]#Cc1ccccc1)([C]#Cc1ccccc1)[C]#Cc1ccccc1)c1ccccc1`, the T/C [4] was 91 % of control, the T/C [1] was 88 % of control and the T/C [2] was 96 % of control. The T/C [3] was 90 % of control.

`CCOC(=O)N/N=C/C(Br)=C\c1ccccc1` was tested, and the T/C (endpoint: mean survival time, dose: 12.5 mg/kg/injection, schedule: Q01DX009 (ip), vehicle: saline with Tween-80) was 97 % of control, the T/C [4] was 92 % of control and the T/C [1] was 92 % of control.

`CCN(CC)c1cc(Cl)ccc1C` was tested, and the T/C (endpoint: mean survival time, dose: 12.5 mg/kg/injection, schedule: Q04DX002 (ip), vehicle: saline with Tween-80) was 98 % of control, the T/C (endpoint: mean survival time, dose: 25.0 mg/kg/injection, schedule: Q04DX002 (ip), vehicle: saline with Tween-80) was 95 % of control and the T/C (endpoint: mean survival time, dose: 50.0 mg/kg/injection, schedule: Q04DX002 (ip), vehicle: saline with Tween-80) was 98 % of control. For the same compound, the T/C (endpoint: mean survival time, dose: 100.0 mg/kg/injection, schedule: Q01DX001 (ip), vehicle: saline sonified) was 101 % of control, the T/C (endpoint: mean survival time, dose: 200.0 mg/kg/injection, schedule: Q01DX001 (ip), vehicle: saline sonified) was 95 % of control and the T/C (endpoint: mean survival time, dose: 400.0 mg/kg/injection, schedule: Q01DX001 (ip), vehicle: saline sonified) was 86 % of control.

For `CN=C(N)N=C(N)N`, the T/C (endpoint: mean survival time, dose: 100.0 mg/kg/injection, schedule: Q04DX003 (ip), vehicle: saline) was 103 % of control, the T/C (endpoint: mean survival time, dose: 200.0 mg/kg/injection, schedule: Q04DX003 (ip), vehicle: saline) was 100 % of control and the T/C (endpoint: mean survival time, dose: 400.0 mg/kg/injection, schedule: Q04DX003 (ip), vehicle: saline) was 95 % of control.

`Nc1nc2c(ncn2-c2ccccc2Br)c(=O)[nH]1` was tested, and the T/C (endpoint: mean survival time, dose: 75.0 mg/kg/injection, schedule: Q01DX001 (ip), vehicle: saline with Tween-80) was 101 % of control, the T/C (endpoint: mean survival time, dose: 150.0 mg/kg/injection, schedule: Q01DX001 (ip), vehicle: saline with Tween-80) was 100 % of control and the T/C (endpoint: mean survival time, dose: 300.0 mg/kg/injection, schedule: Q01DX001 (ip), vehicle: saline with Tween-80) was 101 % of control.
